For three compounds, IC50 results are on record in patent US8853250B2, “Sodium channel inhibitors” (Icagen, Inc., priority 2007, dated 2014).

Read-outs that look alike come from different tables or passages of the source.

The target of one test is T1, hSCN3A (Homo sapiens, UniProt Q9NY46).
T1 construct: expressed in transfected cells
Kind of test: Whole-cell patch-clamp electrophysiology, hSCN3A in HEK cells. It counts as cell-based. Here is the method:
(§1) Human Embryonic Kidney (HEK) cells were transfected with hSCN3A or hSCN9A constructs using lipofectamine reagent (Invitrogen), using standard techniques. […] Clones were screened for expression using the whole-cell voltage-clamp technique.
(§2) HEK cells stably transfected with hSCN3A or hSCN9A were maintained in DMEM medium supplemented with 10% heat-inactivated fetal bovine serum and 400 μg/ml G418 sulfate in an incubator at 37° C. with a humidified atmosphere of 10% CO2. […] For electrophysiological studies, cells were removed from the culture flask by brief trypsinization and replated at low density onto glass cover slips. Cells were typically used for electrophysiological experiments within 24 to 72 h after plating. […]
(§3) The voltage-dependence of inactivation was determined by applying a series of depolarizing prepulses (8 sec long in 10 mV increments) from a negative holding potential. […] Cells were then voltage clamped at the empirically determined V1/2.
(§4) Compounds were tested for their ability to inhibit hSCN3A or hSCN9A sodium channels by activating the channel with a 20 msec voltage step to 0 mV following an 8 second conditioning prepulse to the empirically determined V1/2 (Table B). Compound effect (% inhibition) was determined by difference in current amplitude before and after application of test compounds. […]
(In patch-clamp work, channel activity is measured electrically.)

The next test has as its target T2, hSCN9A (Homo sapiens, UniProt Q15858).
T2 construct: expressed in transfected cells
The experiment in a line: Whole-cell patch-clamp electrophysiology, hSCN9A in HEK cells. It is filed as cell-based. Here is the method:
as §1, §2, §3, §4

A further test has as its target Nav1.3 (Homo sapiens, UniProt Q9NY46). The note with it: read-out: TTX IC-50; cited from earlier work.
A further test has as its target Nav1.1 (Homo sapiens, UniProt P35498). As to conditions: read-out: TTX IC-50; cited from earlier work.
The next test deals with Nav1.9 (Homo sapiens, UniProt Q9UI33). As to conditions: read-out: TTX IC-50; cited from earlier work.
The target in another test is Nav1.2 (Homo sapiens, UniProt Q99250). The note with it: read-out: TTX IC-50; cited from earlier work.
For another test, the target named is Nav1.8 (Homo sapiens, UniProt Q9Y5Y9). The note with it: read-out: TTX IC-50; cited from earlier work.
A further test concerns the target Nav1.6 (Homo sapiens, UniProt Q9UQD0). The note with it: read-out: TTX IC-50; cited from earlier work.

T1 sequence (Q9NY46 whole entry): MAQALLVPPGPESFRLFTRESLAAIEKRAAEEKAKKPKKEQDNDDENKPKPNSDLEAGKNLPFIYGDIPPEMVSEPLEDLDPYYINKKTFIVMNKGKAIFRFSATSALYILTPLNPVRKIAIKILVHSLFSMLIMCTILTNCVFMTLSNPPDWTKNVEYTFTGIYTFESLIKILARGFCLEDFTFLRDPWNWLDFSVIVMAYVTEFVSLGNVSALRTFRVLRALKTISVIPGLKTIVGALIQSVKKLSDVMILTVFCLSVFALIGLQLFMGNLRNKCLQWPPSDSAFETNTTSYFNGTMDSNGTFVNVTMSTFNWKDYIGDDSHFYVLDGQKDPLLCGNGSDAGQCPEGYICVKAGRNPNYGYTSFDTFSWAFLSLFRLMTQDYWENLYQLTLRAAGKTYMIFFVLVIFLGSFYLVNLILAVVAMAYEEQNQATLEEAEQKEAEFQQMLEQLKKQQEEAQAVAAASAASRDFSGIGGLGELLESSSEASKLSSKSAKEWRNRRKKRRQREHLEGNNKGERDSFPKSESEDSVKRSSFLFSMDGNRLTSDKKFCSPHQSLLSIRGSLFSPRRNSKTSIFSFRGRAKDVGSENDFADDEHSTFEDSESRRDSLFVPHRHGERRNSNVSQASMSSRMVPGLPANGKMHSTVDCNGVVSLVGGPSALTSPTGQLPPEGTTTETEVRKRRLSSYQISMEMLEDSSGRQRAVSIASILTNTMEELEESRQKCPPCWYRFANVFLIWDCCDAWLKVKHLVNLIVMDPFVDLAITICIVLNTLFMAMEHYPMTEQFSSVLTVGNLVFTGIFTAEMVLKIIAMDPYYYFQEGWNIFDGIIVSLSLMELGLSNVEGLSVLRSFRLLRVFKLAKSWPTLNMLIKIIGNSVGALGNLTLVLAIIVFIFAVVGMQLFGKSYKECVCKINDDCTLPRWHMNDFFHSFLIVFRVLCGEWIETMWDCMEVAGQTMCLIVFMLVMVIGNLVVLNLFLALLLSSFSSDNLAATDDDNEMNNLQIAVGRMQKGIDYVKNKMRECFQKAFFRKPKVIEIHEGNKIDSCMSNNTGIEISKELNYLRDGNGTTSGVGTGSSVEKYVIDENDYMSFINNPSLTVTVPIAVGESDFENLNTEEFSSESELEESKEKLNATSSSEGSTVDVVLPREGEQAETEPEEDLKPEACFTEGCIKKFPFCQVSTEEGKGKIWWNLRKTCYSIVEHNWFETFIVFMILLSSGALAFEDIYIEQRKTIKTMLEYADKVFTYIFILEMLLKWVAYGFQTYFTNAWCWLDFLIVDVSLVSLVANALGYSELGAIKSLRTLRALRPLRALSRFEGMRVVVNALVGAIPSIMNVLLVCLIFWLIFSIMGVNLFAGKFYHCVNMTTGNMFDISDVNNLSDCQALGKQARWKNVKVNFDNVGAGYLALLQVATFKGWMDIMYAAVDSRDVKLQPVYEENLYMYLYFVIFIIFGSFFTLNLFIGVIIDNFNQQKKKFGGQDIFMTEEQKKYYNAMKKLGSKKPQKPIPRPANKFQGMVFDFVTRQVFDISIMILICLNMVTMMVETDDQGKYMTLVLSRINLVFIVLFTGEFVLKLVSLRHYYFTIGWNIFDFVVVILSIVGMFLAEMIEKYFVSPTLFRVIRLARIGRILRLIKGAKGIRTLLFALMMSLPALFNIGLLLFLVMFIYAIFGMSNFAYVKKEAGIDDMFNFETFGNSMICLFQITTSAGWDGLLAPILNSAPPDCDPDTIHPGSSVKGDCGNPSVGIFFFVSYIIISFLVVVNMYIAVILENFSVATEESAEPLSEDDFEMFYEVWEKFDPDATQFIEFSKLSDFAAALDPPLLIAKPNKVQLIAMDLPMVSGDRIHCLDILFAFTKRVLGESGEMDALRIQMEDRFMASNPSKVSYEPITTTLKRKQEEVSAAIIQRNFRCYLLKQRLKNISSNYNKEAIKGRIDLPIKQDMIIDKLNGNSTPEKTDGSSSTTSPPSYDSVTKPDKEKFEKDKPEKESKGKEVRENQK
T2 sequence (Q15858 whole entry): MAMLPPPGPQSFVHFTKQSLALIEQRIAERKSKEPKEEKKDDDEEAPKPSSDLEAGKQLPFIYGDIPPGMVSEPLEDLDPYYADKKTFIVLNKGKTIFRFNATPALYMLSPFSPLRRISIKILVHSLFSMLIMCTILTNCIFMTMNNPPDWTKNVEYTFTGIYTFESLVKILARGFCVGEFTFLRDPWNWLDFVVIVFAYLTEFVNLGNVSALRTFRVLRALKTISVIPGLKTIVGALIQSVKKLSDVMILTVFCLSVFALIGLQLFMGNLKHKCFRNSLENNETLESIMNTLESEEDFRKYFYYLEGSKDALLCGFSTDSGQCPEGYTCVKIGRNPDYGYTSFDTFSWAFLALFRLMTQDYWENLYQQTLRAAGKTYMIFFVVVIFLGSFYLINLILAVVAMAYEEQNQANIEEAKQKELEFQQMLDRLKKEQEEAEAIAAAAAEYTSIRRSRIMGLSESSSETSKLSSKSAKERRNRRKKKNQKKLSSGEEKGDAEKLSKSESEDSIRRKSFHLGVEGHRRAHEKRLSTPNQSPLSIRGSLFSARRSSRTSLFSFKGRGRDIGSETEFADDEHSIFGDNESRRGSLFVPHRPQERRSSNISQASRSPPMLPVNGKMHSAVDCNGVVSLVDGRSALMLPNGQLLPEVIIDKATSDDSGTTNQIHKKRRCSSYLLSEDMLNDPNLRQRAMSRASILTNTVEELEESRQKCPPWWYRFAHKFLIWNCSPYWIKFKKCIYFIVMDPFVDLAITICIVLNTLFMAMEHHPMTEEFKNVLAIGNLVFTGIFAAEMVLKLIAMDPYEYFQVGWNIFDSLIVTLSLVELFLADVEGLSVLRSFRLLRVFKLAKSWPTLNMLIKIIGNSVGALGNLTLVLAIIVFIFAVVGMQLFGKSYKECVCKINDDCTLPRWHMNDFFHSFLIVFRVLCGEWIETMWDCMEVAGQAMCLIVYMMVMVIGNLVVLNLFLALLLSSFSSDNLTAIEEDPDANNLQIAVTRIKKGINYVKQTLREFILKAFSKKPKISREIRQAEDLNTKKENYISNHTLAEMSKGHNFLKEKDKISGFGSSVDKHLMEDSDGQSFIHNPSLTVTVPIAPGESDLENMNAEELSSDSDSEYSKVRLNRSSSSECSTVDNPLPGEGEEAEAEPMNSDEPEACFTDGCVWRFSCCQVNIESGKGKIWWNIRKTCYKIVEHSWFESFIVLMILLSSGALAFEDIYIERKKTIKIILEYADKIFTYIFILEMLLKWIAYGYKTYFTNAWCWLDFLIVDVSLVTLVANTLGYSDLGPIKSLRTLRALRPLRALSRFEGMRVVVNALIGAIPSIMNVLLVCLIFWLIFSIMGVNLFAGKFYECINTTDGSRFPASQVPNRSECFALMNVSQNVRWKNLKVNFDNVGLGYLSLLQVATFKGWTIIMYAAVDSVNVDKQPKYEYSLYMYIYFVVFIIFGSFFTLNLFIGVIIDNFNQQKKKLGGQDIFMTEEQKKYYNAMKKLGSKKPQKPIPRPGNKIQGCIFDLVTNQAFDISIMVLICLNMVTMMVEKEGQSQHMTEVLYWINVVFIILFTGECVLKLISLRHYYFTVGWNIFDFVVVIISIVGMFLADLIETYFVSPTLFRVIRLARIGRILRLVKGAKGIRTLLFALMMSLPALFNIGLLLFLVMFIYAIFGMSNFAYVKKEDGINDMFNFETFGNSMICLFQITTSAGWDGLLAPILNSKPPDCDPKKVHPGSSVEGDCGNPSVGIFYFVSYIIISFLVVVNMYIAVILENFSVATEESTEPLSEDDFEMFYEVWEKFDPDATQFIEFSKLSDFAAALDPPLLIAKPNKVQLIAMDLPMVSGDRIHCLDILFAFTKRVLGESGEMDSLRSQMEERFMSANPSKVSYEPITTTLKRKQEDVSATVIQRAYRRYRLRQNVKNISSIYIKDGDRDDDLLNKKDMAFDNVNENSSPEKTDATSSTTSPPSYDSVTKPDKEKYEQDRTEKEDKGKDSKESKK
Sequence of Nav1.3 (Q9NY46 whole entry, looked up): as the sequence (Q9NY46 whole entry) above

As to `O=S(=O)(CCc1ccc(C(F)(F)F)cc1)c1ccc(S(=O)(=O)Nc2nccs2)cc1` [Compound 20, N-(thiazol-2-yl)-4-(4-(trifluoromethyl)phenethylsulfonyl)benzenesulfonamide], the results for the IC50 against hSCN3A and against hSCN9A were 160 nM and more than 10000 nM, respectively.
For the compound `O=S(=O)(Nc1nccs1)c1ccc(S(=O)(=O)c2ccccc2)cc1` [Compound 65, 4-(phenylsulfonyl)-N-(thiazol-2-yl)benzenesulfonamide], the IC50 on hSCN3A (estimated IC-50 from single point % inhibition, HEK cells, 8 sec prepulse to V1/2, step to 0 mV, read-out: hSCN3A EIC-50) was 5000 nM; at hSCN9A (estimated IC-50 from single point % inhibition, HEK cells, 8 sec prepulse to V1/2, step to 0 mV, read-out: hSCN9A EIC-50), 2700 nM.
For the compound `NC1=N[C@H](O)[C@H]2[C@H]3O[C@]4(O)O[C@@H]([C@@H](O)[C@@]2(N1)[C@@H]4O)[C@]3(O)CO` [TTX, tetrodotoxin], the IC50 was 15 nM at Nav1.3; 10 nM at Nav1.1; 1000 nM at Nav1.9; 10 nM at Nav1.2; 50000 nM on Nav1.8; 6 nM on Nav1.6.
